Results as given in ChEMBL document CHEMBL1130804, “Potent antimitotic and cell growth inhibitory properties of substituted chalcones” (Bioorg Med Chem Lett, 1998).

Assays:
K562 = test: Compound was evaluated for cytotoxic activity against K562 human chronic myelogenous leukemia cell line using MTT assay; assay type: functional, cell-based
Tubulin alpha chain = Tubulin alpha chain (Sus scrofa, UniProt P02550); test: Tested for inhibition of polymerization of tubulin
HeLa = test: Compound was evaluated for cytotoxic activity against HeLa S3 cell line; assay type: functional, cell-based; conditions: Homo sapiens

Chain of Tubulin alpha chain (P02550 whole entry, looked up): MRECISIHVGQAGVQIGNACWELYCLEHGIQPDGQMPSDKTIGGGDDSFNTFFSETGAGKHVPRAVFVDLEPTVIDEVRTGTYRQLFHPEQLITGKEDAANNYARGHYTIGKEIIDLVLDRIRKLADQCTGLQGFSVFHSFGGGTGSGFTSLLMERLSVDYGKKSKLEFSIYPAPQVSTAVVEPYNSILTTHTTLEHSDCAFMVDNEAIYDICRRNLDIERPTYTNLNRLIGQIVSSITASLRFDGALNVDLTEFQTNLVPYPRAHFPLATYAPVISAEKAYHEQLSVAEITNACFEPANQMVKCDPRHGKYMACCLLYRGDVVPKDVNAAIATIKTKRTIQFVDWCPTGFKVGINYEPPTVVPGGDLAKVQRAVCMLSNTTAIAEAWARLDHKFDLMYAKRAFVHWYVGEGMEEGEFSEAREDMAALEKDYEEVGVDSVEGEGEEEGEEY

SMILES: COc1cc(C(=O)/C=C/c2ccc3c(c2)OCCO3)cc(OC)c1OC
- IC50 (K562): 0.08 µM

SMILES: COc1cc(C(=O)/C(C)=C/c2ccc3c(c2)OCCO3)cc(OC)c1OC
- IC50 (K562): 0.012 µM

SMILES: COc1ccc(OC)c(C(=O)/C=C/c2ccc(N(C)C)cc2)c1
- IC50 (K562): 0.036 µM

SMILES: COc1cc(C(=O)/C(C)=C/c2ccc3c(c2)OCO3)cc(OC)c1OC
- IC50 (K562): 0.014 µM

SMILES: COc1ccc(OC)c(C(=O)/C(C)=C/c2ccc(N(C)C)cc2)c1
- IC50 (K562): 0.011 µM
- IC50 (Tubulin alpha chain): 0.012 µM

SMILES: COc1ccc(/C=C(\C)C(=O)c2cc(OC)c(OC)c(OC)c2)cc1O
- IC50 (HeLa): 0.00062 µM
- IC50 (K562): 0.00021 µM

SMILES: COc1cc(C(=O)/C=C/c2ccc3c(c2)OCO3)cc(OC)c1OC
- IC50 (K562): 0.3 µM

SMILES: COc1ccc(/C=C/C(=O)c2cc(OC)c(OC)c(OC)c2)cc1O
- IC50 (K562): 0.0043 µM
